For orientation: IC50 means the concentration that gives 50% inhibition. A low value points to greater potency in that assay.

This note sets out measurements from article PMC12801976, “Enzyme-Powered CO2 Utilization: A Bifunctional Immobilized Biocatalyst for Intensified CCU of Industrial Feedstocks to High-Value Chemicals” (ACS Sustainable Chemistry & Engineering, 2025).

This assay has as its target T1, glycerol dehydrogenase (GlyDH).
T1 construct: His-tagged, produced and purified in house (details only in SI); multimeric zinc metalloenzyme; free enzyme
The assay is described as follows: NADH formation at […] nm, DHA dose series. It is filed as biochemical. Conditions: free enzyme; product inhibition; standard assay 100 mM glycerol, 2.5 mM NAD+, 100 mM phosphate pH 7.0, 30 °C.

Each structure is given as a SMILES string.

As for `O=C(CO)CO` [DHA, dihydroxyacetone], half-maximal inhibition (IC50) was put at 330 µM.
